Consider one compound from paper PMC11362066, “Fecal elimination of fluralaner in different carnivore species after oral administration” (Frontiers in Veterinary Science, 2024).

Structures are written as SMILES. Values after ≈ are worked out from the molar mass of the structure shown.

The nature of data set [1]: Fecal elimination of fluralaner after oral administration, South American coati. The class given is in vivo, Nasua nasua. To be noted: South American coati n = 1. Here is the method:
(§1) Based on the species present at the Paris Zoo, the animals selected to be part of the study are described in Table 1.
(§2) Each individual received 1–3 tablets of fluralaner (Bravecto®, formulations from 112.5 mg to 1,400 mg per tablet), based on the dose determined (Table 2) and the actual BW of the animal on day 0 (D0). Tablets were administered with the food. Tablets were not divided, according to the summary of product characteristics and the dose administered was adjusted as closely as possible to the theoretical dose calculated. The recommended bracket doses (25–56 mg/kg in a 20-kg dog) were used as a guideline (adjusted to the body weight of the animals) to ensure that the actual dose administered would remain in the acceptable margin. For instance, for the Iberian Wolf: using the dose range 25–56 mg/kg gave a D-reference of [500–1,120] mg, thus c = D-ref/P-ref = [0.76–1.69], i.e., D-target = [763–1,698] mg, resulting in a reference range of [21.9–48.6] mg.kg^−1. The actual doses administered were between 28 and 30 mg.kg^−1. This was checked for all species.
(§3) Feces were sampled on the floor, in priority on concrete ground in indoor facilities when animals were isolated. Fecal sampling was performed by keepers with gloves, transferred to sterile vials, then saved at −80°C until transfer to the lab.
(§4) For feces analysis, well-homogenized samples were weighed and dried at 40°C overnight to eliminate water. 200 mg of the dried sample were weighed, 80 μL of IS solution (0.5 μg/mL solution), 0.52 mL of water, 200 mg QuEChERS salts and 1 mL of acetonitrile were added in a 5 mL plastic centrifuge tube. The sample was then mixed well by vortexing for 2 min and then centrifuged at 12,000 rpm for 5 min.
(§5) The upper clear layer solutions were transferred to auto-sampler vials and placed in the auto-sampler at 10°C for LC–MS/MS analysis. All results are reported in μg.kg^−1 dry weight (dw).
(§6) All pharmacokinetic data were computed using a non-linear model and “PK solver” in Microsoft-excel®. This approach has been used by Kilp et al. ([21]) and considered satisfactory by comparison with a standard PK software such as WinNonLIn®.
(§7) Only Lion and Mountain lion data (3 individuals+negative control for each species) are presented in Figure 2 as mean ± SD of the fecal concentration of fluralaner vs. time post administration. When data were LOD < Data<LOQ, an average value of 4 has been used (for graphical and PK analysis purposes). When concentrations were < LOD, ½ LOD value was used for the same purposes.

Details of data set [2]: method as in ref 27 = [27]; 27. VSDB Veterinary substances DataBase consulted on June 1st, ( 2022 ) Available at: http://sitem.herts.ac.uk/aeru/vsdb/index.htm. To be noted: VSDB; cited from earlier work.
The subject of a further data set is Daphnia magna. Also on record: method as in ref 10 = [10]; 10. CVMP ( 2017 ) CVMP assessment report for EXZOLT (EM EA/V/C/004344/0000), EMA/377159/2017, Available at: https://www.ema.europa.eu/en/documents/assessment-report/exzolt-epar-public-assessment-repor. To be noted: cited from earlier work.
The nature of data set [3]: Fecal elimination of fluralaner after oral administration, Lion. The class given is in vivo, Panthera leo. Here is the method:
as §1, §2, §3, §4, §5, §6, §7

A short description of data set [4]: Oral Bravecto in zoo carnivores, all treated animals (tolerance, fecal residues). It is filed as in vivo. Here is the method:
as §1, §2, §3

On the set-up of data set [5]: method as in PMID 36265636. As to conditions: treated dogs; cited from earlier work.
The mark [6] stands for this setting: fecal elimination, oral 52.1 mg.kg^−1.
Where [7] appears, read: fecal elimination, Lion n = 3, mean ± SD, oral 16.0–24.1 mg.kg^−1.
Where [8] appears, read: feces, Lion n = 3, mean ± SD, oral 16.0–24.1 mg.kg^−1.

Usually MRT stands for a mean duration of stay, worked out from the concentration-time curve. By LC50 is commonly meant the concentration that kills 50% of the test population. Consider `Cc1cc(C2=NOC(c3cc(Cl)cc(Cl)c3)(C(F)(F)F)C2)ccc1C(=O)NCC(=O)NCC(F)(F)F` (centres unmarked) [fluralaner, Fluralaner], for which the mean residence time MRT was found to be 912 h in data set [1] (setting [6]) and 190 ± 24 h in data set [3] (setting [7]). The t1/2 worked out at 624 h in data set [1] (setting [6]) and 288 ± 24 h in data set [3] (setting [7]). Besides, the Cmax in data set [1] (feces, Bravecto tablet oral with food, 52.1 mg.kg^−1, rough estimate) is 453 μg.kg-^1 dry weight; in data set [3] (feces, Lion n = 3, mean ± SD, Bravecto tablets oral with food, 16.0–24.1 mg.kg^−1, rough estimate) it was 44,880 ± 28,616 μg.kg-^1 dry weight. The “AUC (D0-D112)” value is listed as 7,688 d* μg.kg-^1 dry weight in data set [1] (feces, oral 52.1 mg.kg^−1) and 232,796±95,614 d* μg.kg-^1 dry weight in data set [3] (setting [8]). The “AUC(0-infini)” value in data set [1] (feces, oral 52.1 mg.kg^−1) was 8,998 d* μg.kg-^1 dry weight; in data set [3] (setting [8]) it was 234,203±95,339 d* μg.kg-^1 dry weight. The Last detection day in data set [1] (feces, oral 52.1 mg.kg^−1) was 82 days; in data set [3] (feces, Lion n = 3, oral 16.0–24.1 mg.kg^−1), 89 days. The tmax is 24 h in data set [1] (feces, oral 52.1 mg.kg^−1, rough estimate) and 24 h in data set [3] (feces, Lion n = 3, oral 16.0–24.1 mg.kg^−1, rough estimate). Also, the Hydrolysis result in data set [2] is given as “not degraded by hydrolysis”. In addition, in data set [2], the Lipophilicity result is “lipophilic”. In addition, in the data set on Daphnia magna (Daphnia magna, assessment report for EXZOLT), the LC50 was 0.047 µg/mL (≈ 0.0845 µM). In the data set on Daphnia magna (Daphnia magna), the “No Observed Effect Concentration (NOEC) for reproduction” value was 0.047 µg/L. In addition, in the data set with Daphnia magna (aquatic invertebrates (Daphnia magna)), the Toxicity classification entry was “highly toxic”. Moreover, in data set [4] (all animals treated, oral Bravecto tablets, allometrically scaled dose), the “Adverse reaction during the course of the study” value is recorded as “No adverse reaction was noted”. For the same compound, the “Concentrations detected in fecal samples throughout the study” value in data set [4] (feces, highest value) is on record as “up to 44,000 μg/kg”. In addition, in data set [4] (our study), the “Duration of elimination in feces as an active substance” value was “up to 3 months”. The “Measured values in urine samples” value in data set [5] was 1 µg/L.
